Test results from PubChem BioAssay AID1963982 (Molecular Pharmacology Branch, DTP, NCI, 2024).
Values belong to the compound of their own block, whether it stands above or below them.

Test system: 313798-341-R-J2-PDC spheroids, viability
Assay: Anticancer human tumor 313798-341-R-J2-PDC patient-derived cervical squamous cell carcinoma cell line growth inhibition [PI3K]
Settings: spheroids with HUVEC and MSC; for IC50: curve of first compound; for viability, T/C: stronger effect = lower value
Summary of the method: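 Tumor cells were combined with HUVEC and MSCs into spheroids, then dosed with PI3K-inhibitor combinations over half-log ranges capped near clinical Cmax or 10 microM.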

[1] = second compound 0.00316 µM, first compound 0.0316 µM
[2] = second compound 0.00316 µM, first compound 0.1 µM
[3] = second compound 0.00316 µM, first compound 0.316 µM
[4] = second compound 0.00316 µM, first compound 1 µM
[5] = second compound 0.00316 µM, first compound 3.16 µM
[6] = second compound 0.00316 µM, first compound 10 µM
[7] = second compound 0.01 µM, first compound 0.0316 µM
[8] = second compound 0.01 µM, first compound 0.1 µM
[9] = second compound 0.01 µM, first compound 0.316 µM
[10] = second compound 0.01 µM, first compound 1 µM
[11] = second compound 0.01 µM, first compound 3.16 µM
[12] = second compound 0.01 µM, first compound 10 µM
[13] = second compound 0.0316 µM, first compound 0.0316 µM
[14] = second compound 0.0316 µM, first compound 0.1 µM
[15] = second compound 0.0316 µM, first compound 0.316 µM
[16] = second compound 0.0316 µM, first compound 1 µM
[17] = second compound 0.0316 µM, first compound 3.16 µM
[18] = second compound 0.0316 µM, first compound 10 µM
[19] = second compound 0.1 µM, first compound 0.0316 µM
[20] = second compound 0.1 µM, first compound 0.1 µM
[21] = second compound 0.1 µM, first compound 0.316 µM
[22] = second compound 0.1 µM, first compound 1 µM
[23] = second compound 0.1 µM, first compound 3.16 µM
[24] = second compound 0.1 µM, first compound 10 µM
[25] = second compound 0.316 µM, first compound 0.0316 µM
[26] = second compound 0.316 µM, first compound 0.1 µM
[27] = second compound 0.316 µM, first compound 0.316 µM
[28] = second compound 0.316 µM, first compound 1 µM
[29] = second compound 0.316 µM, first compound 3.16 µM
[30] = second compound 0.316 µM, first compound 10 µM
[31] = second compound 1 µM, first compound 0.0316 µM
[32] = second compound 1 µM, first compound 0.1 µM
[33] = second compound 1 µM, first compound 0.316 µM
[34] = second compound 1 µM, first compound 1 µM
[35] = second compound 1 µM, first compound 3.16 µM
[36] = second compound 1 µM, first compound 10 µM
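Also: spheroids exposed to compounds for seven days.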
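For viability, T/C in this document: 100% = DMSO vehicle control viability.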

- IC50 (second compound 0.00316 µM): > 10 µM
- IC50 (second compound 0.01 µM): > 10 µM
- IC50 (second compound 0.0316 µM): > 10 µM
- IC50 (second compound 0.1 µM): > 10 µM
- IC50 (second compound 0.316 µM): > 10 µM
- IC50 (second compound 1 µM): > 10 µM
SMILES: C#Cc1c(F)ccc2cc(O)cc(-c3ncc4c(N5CC6CCC(C5)N6)nc(OCC56CCCN5CC(F)C6)nc4c3F)c12 (centres undefined) + CC(Nc1ccc2c(c1)OCCn1cc(N3C(=O)OCC3C(F)F)nc1-2)C(N)=O
- viability, T/C [1]: 91.8%
- viability, T/C [2]: 96.8%
- viability, T/C [3]: 97.4%
- viability, T/C [4]: 95.5%
- viability, T/C [5]: 99.3%
- viability, T/C [6]: 99.3%
- viability, T/C [7]: 97.7%
- viability, T/C [8]: 99.9%
- viability, T/C [9]: 102%
- viability, T/C [10]: 110%
- viability, T/C [11]: 116%
- viability, T/C [12]: 98.9%
- viability, T/C [13]: 100%
- viability, T/C [14]: 113%
- viability, T/C [15]: 109%
- viability, T/C [16]: 99.1%
- viability, T/C [17]: 109%
- viability, T/C [18]: 104%
- viability, T/C [19]: 118%
- viability, T/C [20]: 94.5%
- viability, T/C [21]: 108%
- viability, T/C [22]: 104%
- viability, T/C [23]: 102%
- viability, T/C [24]: 97%
- viability, T/C [25]: 91%
- viability, T/C [26]: 81.6%
- viability, T/C [27]: 74.2%
- viability, T/C [28]: 78.8%
- viability, T/C [29]: 83%
- viability, T/C [30]: 76.9%
- viability, T/C [31]: 60.6%
- viability, T/C [32]: 62.2%
- viability, T/C [33]: 61.2%
- viability, T/C [34]: 58.9%
- viability, T/C [35]: 58.6%
- viability, T/C [36]: 45.6%

- IC50 (second compound 0.00316 µM): > 10 µM
- IC50 (second compound 0.01 µM): > 10 µM
- IC50 (second compound 0.0316 µM): > 10 µM
- IC50 (second compound 0.1 µM): > 10 µM
- IC50 (second compound 0.316 µM): > 10 µM
- IC50 (second compound 1 µM): > 10 µM
SMILES: C=CC(=O)N1CCN(c2nc(=O)n(-c3c(C)ccnc3C(C)C)c3nc(-c4c(O)cccc4F)c(F)cc23)C(C)C1 (centres undefined) + CC(Nc1ccc2c(c1)OCCn1cc(N3C(=O)OCC3C(F)F)nc1-2)C(N)=O
- viability, T/C [1]: 111%
- viability, T/C [2]: 92.3%
- viability, T/C [3]: 97.2%
- viability, T/C [4]: 96%
- viability, T/C [5]: 105%
- viability, T/C [6]: 98.7%
- viability, T/C [7]: 98.3%
- viability, T/C [8]: 102%
- viability, T/C [9]: 97.8%
- viability, T/C [10]: 95.2%
- viability, T/C [11]: 102%
- viability, T/C [12]: 97.7%
- viability, T/C [13]: 110%
- viability, T/C [14]: 97.1%
- viability, T/C [15]: 104%
- viability, T/C [16]: 96.9%
- viability, T/C [17]: 106%
- viability, T/C [18]: 102%
- viability, T/C [19]: 104%
- viability, T/C [20]: 95.3%
- viability, T/C [21]: 102%
- viability, T/C [22]: 101%
- viability, T/C [23]: 118%
- viability, T/C [24]: 100%
- viability, T/C [25]: 83.7%
- viability, T/C [26]: 85.8%
- viability, T/C [27]: 86.8%
- viability, T/C [28]: 96.7%
- viability, T/C [29]: 87.5%
- viability, T/C [30]: 70%
- viability, T/C [31]: 55.2%
- viability, T/C [32]: 59.5%
- viability, T/C [33]: 54.8%
- viability, T/C [34]: 56.4%
- viability, T/C [35]: 66.7%
- viability, T/C [36]: 56.2%
